Measurements: US20120232251A1, “GLUCOSE SENSOR” (King's College London, priority 2009, published 2012)
Like-named read-outs stand apart in the source and are kept apart here.

Columns and labels:
[1] = cited from earlier work
[2] = cited from earlier work; for fluorescence change: autofluorescence of the protein; for Kd: monitored by the autofluorescence of GBP [32], read-out: Kd for glucose
[3] = Steady-state fluorescence intensity response of badan-labelled GBP mutant to glucose in serum; assay type: binding
Method: (§1) To label GBP mutants with badan, 50 μM protein was dissolved in 5 mM Tris(2-carboxyethyl)phosphine in phosphate-buffered saline (PBS) pH 7.4, and then a 10-fold excess of dye (500 μM) was added and the mixture incubated overnight at 4° C., after which it was purified on a Sephadex G-25 gel-filtration column.
Venous blood samples from healthy volunteers were collected in Vacuette tubes. The specimens were incubated at room temperature for 4 days to allow blood clotting and glycolysis. The samples were then centrifuged at 3500 g for 20 min and serum removed, pooled and stored until use. The glucose concentrations of serum samples were determined using a hexokinase-based assay (Sigma).
Steady-state fluorescence intensity was recorded on a Perkin-Elmer LS50B fluorimeter (Perkin Elmer Instruments, Beaconsfield, UK). The excitation and emission wavelengths of badan were 400 and 550 nm respectively. […] The labelled protein was incubated with increasing amounts of D-glucose for 15-20 min at room temperature before fluorescence was recorded.
The binding constant, Kd, was calculated from the sigmoidal dose-response curves using Prism 5 software (GraphPad, San Diego, Calif., USA). Lifetime values were obtained from fluorescence transients using the TR12 analysis package (courtesy of Dr. Paul Barber, Gray Cancer Institute of Radiation Oncology and Biology, Oxford University, Oxford, UK). […]

[4] = Steady-state fluorescence intensity response of badan-labelled GBP mutants to glucose in PBS; assay type: binding; conditions: for Δ Fluorescence (%) (maximal change in fluorescence intensity with addition of glucose) / Kd: badan-labelled GBP mutant; for Δ Fluorescence (%) (maximal change in fluorescence intensity with addition of glucose): PBS, saturating glucose; for Kd: in PBS, read-out: Kd (mM) binding constant for glucose; for change in fluorescence intensity on glucose addition (in words): increasing glucose, up to 1M
Method: as §1
Steady-state fluorescence intensity was recorded on a Perkin-Elmer LS50B fluorimeter (Perkin Elmer Instruments, Beaconsfield, UK). The excitation and emission wavelengths of badan were 400 and 550 nm respectively. All data were obtained at room temperature using quartz cuvettes with sample volume of 100 μL. The labelled protein was incubated with increasing amounts of D-glucose for 15-20 min at room temperature before fluorescence was recorded.
The binding constant, Kd, was calculated from the sigmoidal dose-response curves using Prism 5 software (GraphPad, San Diego, Calif., USA). Lifetime values were obtained from fluorescence transients using the TR12 analysis package (courtesy of Dr. Paul Barber, Gray Cancer Institute of Radiation Oncology and Biology, Oxford University, Oxford, UK). Global analysis was applied to the entire data set of twelve transients as described for the H152C mutant previously.

[5] = prior-art reports, read-out: Kd / binding constant for glucose

A213R: GBP having a single mutation of A213R (Amiss et al)
Kd ([1]; Amiss et al 2007, read-out: glucose affinity): ~1000 µM

D14E/F16A: GBP two-mutant D14E/F16A, monitored by autofluorescence (Sakaguchi-Mikami et al)
fluorescence change [2]: about 10% | Kd [2]: 3900 µM

E149C A213R L238S: GBP triple mutant coupled to the IANBD fluorophore (Amiss et al)
change in fluorescence intensity upon glucose binding (in words) ([1]; coupled to the IANBD fluorophore, Amiss et al): fifty percent

E149C/A213C/L238S(GGBP): GGBP triple mutant attached to Nile red (Thomas et al 2006)
change (maximal increase) in fluorescence intensity on addition of glucose ([1]; prior-art reports): 50% | change (maximal increase) in fluorescence intensity on addition of glucose ([1]; prior-art reports, listed as GBP attached to Nile red): about 50% | Kd [1, 5]: 7000 µM

E149C/A213S/L238S: GGBP triple mutant reported by Hsieh et al
Kd [1, 5]: 500 µM

F16A: GBP mutant F16A, monitored by autofluorescence (Sakaguchi-Mikami et al)
fluorescence change [2]: about 10% | Kd [2]: 200 µM

GBP: unmutated glucose/galactose binding protein of E. coli
Kd [2]: 0.2 µM

H152C/A213R/L238S: E. coli glucose/galactose binding protein triple mutant labelled at cysteine 152 with badan
Δ Fluorescence (%) (maximal change in fluorescence intensity with addition of glucose) [3]: 180% | Kd ([3]; read-out: Kd (mM) binding constant for glucose): 14 mM | Δ Fluorescence (%) (maximal change in fluorescence intensity with addition of glucose) [4]: 200% | Kd [4]: 11 mM

H152C/A213R: GBP double mutant labelled at 152C with badan
Δ Fluorescence (%) (maximal change in fluorescence intensity with addition of glucose) [4]: ~500% | Kd [4]: 0.6 mM

H152C/F16A: GBP double mutant labelled at 152C with badan
binding of glucose (in words) ([4]; badan-labelled): abolished the binding of glucose | Δ Fluorescence (%) (maximal change in fluorescence intensity with addition of glucose) [4]: 0% | change in fluorescence intensity on glucose addition (in words) ([4]; badan-labelled, listed as F16A mutation with H152C): no change of fluorescence intensity | change in fluorescence intensity on glucose addition (in words) ([4]; badan-labelled, listed as F16A/H152C-badan): no change in fluorescence

H152C/L238S: GBP double mutant labelled at 152C with badan
Δ Fluorescence (%) (maximal change in fluorescence intensity with addition of glucose) [4]: 200% | Kd [4]: 0.6 mM

L238S: GBP mutant L238S previously reported
weakening of the binding of glucose to GBP ([1]; previously reported [31]): ten-fold

L255C: GGBP mutant L255C (Ge et al)
Kd / binding constant for glucose (in words) ([1]; prior-art reports): micromolar range

Q26C: GGBP with Gln at position 26 mutated to Cys (Tolosa et al)
Kd / binding constant for glucose (in words) ([1]; prior-art reports): micromolar range
